# Laboratory results reported in PMC6811361, “Effect of a bound anion on the structure and dynamics of halorhodopsin from Natronomonas pharaonis” (Structural Dynamics, 2019).
# Key:
# Format in all cases: binding
# [1] = biological target: T1, halorhodopsin from Natronomonas pharaonis (NpHR) (Natronomonas pharaonis, UniProt P15647, W127F); experiment: absorption and time-resolved UV resonance Raman spectroscopy; conditions: covalent, protonated Schiff base; retinal added to expression culture
# T1 construct: gene hop; C-terminal His tag, expressed in E. coli BL21(DE3), solubilised and purified in DDM; all-trans-retinal on Lys256
# T1 sequence (P15647 whole entry W127F): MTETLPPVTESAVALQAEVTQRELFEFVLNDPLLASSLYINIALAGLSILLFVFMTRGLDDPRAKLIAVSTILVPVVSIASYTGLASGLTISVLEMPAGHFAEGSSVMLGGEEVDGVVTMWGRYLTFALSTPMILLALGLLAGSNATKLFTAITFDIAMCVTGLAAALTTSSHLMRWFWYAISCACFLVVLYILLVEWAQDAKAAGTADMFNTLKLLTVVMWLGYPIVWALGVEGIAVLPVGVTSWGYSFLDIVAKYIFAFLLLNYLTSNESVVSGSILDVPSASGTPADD
# [2] = biological target: T2, halorhodopsin from Natronomonas pharaonis (NpHR) (Natronomonas pharaonis, UniProt P15647); experiment: visible resonance Raman spectroscopy (C=N stretch, deuteration shift); conditions: covalent, protonated Schiff base at Lys256; pH 7.0; chloride-bound, formate-bound and anion-depleted forms
# T2 construct: gene hop; C-terminal His tag, expressed in E. coli BL21(DE3), solubilised and purified in DDM; all-trans-retinal on Lys256
# T2 sequence (P15647 whole entry): as the sequence (P15647 whole entry W127F) above, with F127W counted along it
# [3] = biological target: T3, halorhodopsin from Natronomonas pharaonis (NpHR) (Natronomonas pharaonis, UniProt P15647, W229F); experiment: absorption and time-resolved UV resonance Raman spectroscopy; conditions: covalent, protonated Schiff base; retinal added to expression culture
# T3 construct: gene hop; C-terminal His tag, expressed in E. coli BL21(DE3), solubilised and purified in DDM; all-trans-retinal on Lys256
# T3 sequence (P15647 whole entry W229F): as the sequence (P15647 whole entry W127F) above, with F127W, W229F counted along it
structure (smiles),measurement,setting,value
CC1=C(/C=C/C(C)=C/C=C/C(C)=C/C=O)C(C)(C)CCC1 [all-trans-retinal],absorption and time-resolved UV resonance Raman spectroscopy,[1],sufficient amounts of the W127F and W229F NpHR mutants were obtained to measure their spectra
same,"visible resonance Raman spectroscopy (C=N stretch, deuteration shift)",[2],The observed deuteration shifts indicate that the Schiff base is protonated in all three forms
same,absorption and time-resolved UV resonance Raman spectroscopy,[3],sufficient amounts of the W127F and W229F NpHR mutants were obtained to measure their spectra
